From patent US20100016335A1, “NOVEL AMINOPYRIDINE DERIVATIVES HAVING AURORA A SELECTIVE INHIBITORY ACTION” (priority 2006, published 2010) come the findings set out here.

The target in experiment [1] is T1, GST-tagged human Aurora B(AurB)/His-tagged human INCENP complex proteins (Homo sapiens, UniProt Q96GD4).
T1 construct: GST; purchased Carna Biosciences, Inc
In words: Aurora B inhibitory activity (Method A, IMAP assay kit). As to conditions: 40 μM ATP, 25° C., 45 minutes. The format is biochemical. The procedure: An assay development kit for IMAP (registered trademark) (Aurora B), purchased from Carna Biosciences, Inc., was used for phosphorylation reaction, and the phosphorylation of a substrate was detected using the IMAP technology. […] Using the same, the phosphorylation reaction was conducted in accordance with a partially revised protocol attached to the kit, and then the phosphorylation of the substrate was detected using the IMAP technology.
For the phosphorylation reaction, 384 well plate was used, and the reaction volume was 10 μl/well. The composition of the reaction buffer (assay buffer) is comprised of 20 mM of HEPES buffer (pH 7.4), 0.01% Tween-20, and 2 mM of dithiothreitol (DTT). Thereto, AurB/INCENP complex protein, 100 nM of the substrate, and 40 μM of ATP, and 1 mM of magnesium salt were added, and then the reaction was conducted at 25° C. for 45 minutes. Thereafter, in order to terminate and detect the reaction, 30 μl of the IMAP (registered trademark) binding reagent (IMAP Progressive Binding Reagent, R7284) that had been diluted (1:400) in the 1× IMAP binding buffer A (IMAP Progressive Binding Buffer A, 5× stock, R7282) was added to each well.
The compound to be tested was added to the reaction system such that a dilution series of the compound in DMSO was prepared, and then 0.5 μL of this solution was added for the testing to each well. Each control well was provided by adding 0.5 μL of DMSO to the well in place of the DMSO solution containing the compound to be tested.

Experiment [2] concerns Human cervical cancer cells (HeLa S3). Description: Effect by combined use of drugs in cells (docetaxel), WST-8 method. The format is cell-based. As to conditions: HeLa S3, three days; for inhibition at 0.3 µM: compound 0.3 μM alone; for inhibition at 1 µM: compound 1.0 μM alone. The procedure:
Fetal calf serum (FCS) was purchased from Moregate Biotech, DMEM medium from Invitrogen Corp., docetaxel (tradename: Taxere) from Sigma-Aldrich, Inc., and WST-8 from Kishida Chemical Co., Ltd.
(§1) Human cervical cancer cells (HeLa S3) were obtained from the American Type Culture Collection (ATCC).
Cells were suspended in a DMEM medium containing 10% FCS, and the cell suspension was dispensed to two 96-well plastic plates at a rate of 750 cells/100 microliters per well. The plates were incubated overnight in 5% CO2-95% air at 37° C. A drug was subjected to graded dilution in dimethylsulfoxide and further diluted with DMSO or with a DMEM medium containing 10% FCS and also containing 0.6 nM docetaxel. Then, the dilutions were each dispensed to one of the plates on which cells had been disseminated in advance, at a rate of 100 microliters per well. The final concentration of docetaxel at this stage was 0.3 nM. Also, the concentrations in the case of sole administration of the compound according to the invention were 0.003, 0.01, 0.03, 0.1, 0.3, 1, 3 and 10 μM. The plates were incubated for further three days in 5% CO2-95% air at 37° C. Cell growth after incubation was measured by the WST-8 method (H. Tominaga, et al., Anal. Commun., 36, 47-50 (1999)). Here, the WST-8 method refers to a method in which 20 microliters of a WST-8 reagent solution is added to each well, incubation is conducted at 37° C. for 60 minutes, the plate is stirred, and the amount of formazan produced is measured by a colorimetric method to determine the inhibitory rate of the drug. The growth inhibitory effects of docetaxel and of the compound according to the invention were determined, with the value obtained in sole treatment of DMSO being defined as 0%.
(Tetrazolium dyes change colour on reduction, which living cells bring about.)

For experiment [3] the test system is unchanged. In words: Cell growth inhibitory effect, WST-8 method. The experiment is classed as cell-based. The settings on record: Homo sapiens, 72 h; HeLa S3, three days incubation; read-out: Cell growth inhibitory effect (HeLaS3) (IC50). As to the method: Fetal calf serum (FCS) was purchased from Moregate Biotech, and DMEM medium was purchased from Invitrogen Corp. WST-8 was purchased from Kishida Chemical Co., Ltd.
as §1
Cells were suspended in a DMEM medium containing 10% FCS, and the cell suspension was dispensed to a 96-well plastic plate at a rate of 750 cells/100 microliters per well. The plate was incubated overnight in 5% CO2-95% air at 37° C. A drug was subjected to graded dilution in dimethylsulfoxide and further diluted with a DMEM medium containing 10% FCS. Then, the dilution was dispensed to the plate on which cells had been disseminated in advance, at a rate of 100 microliters per well. The plate was incubated for further three days in 5% CO2-95% air at 37° C. Cell growth after incubation was measured by the WST-8 method (H. Tominaga, et al., Anal. Commun., 36, 47-50 (1999)). Here, the WST-8 method refers to a method in which 20 microliters of a WST-8 reagent solution is added to each well, incubation is conducted at 37° C. for 60 minutes, the plate is stirred, and the amount of formazan produced is measured by a […] method to determine the inhibitory rate of the drug.

In a further experiment the target is T2, human Aurora A (Homo sapiens, UniProt O14965).
T2 construct: His (N); made in house; host or cells: Escherichia coli BL21-CodonPlus(DE3)-RIL
T2 sequence (O14965 1-403): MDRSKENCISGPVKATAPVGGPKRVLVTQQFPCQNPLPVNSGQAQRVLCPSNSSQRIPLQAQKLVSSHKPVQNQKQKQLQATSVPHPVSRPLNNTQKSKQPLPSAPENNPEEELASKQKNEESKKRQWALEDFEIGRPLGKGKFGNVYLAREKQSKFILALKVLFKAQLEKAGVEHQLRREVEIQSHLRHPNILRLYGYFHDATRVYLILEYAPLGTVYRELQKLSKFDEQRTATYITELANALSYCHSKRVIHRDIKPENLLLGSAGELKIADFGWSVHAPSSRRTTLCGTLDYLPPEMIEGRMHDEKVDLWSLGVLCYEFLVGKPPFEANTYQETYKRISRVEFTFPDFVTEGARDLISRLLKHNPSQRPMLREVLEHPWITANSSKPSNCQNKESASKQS
Description: Aurora A inhibitory activity (IMAP fluorescence polarization phosphorylation assay). The experiment is classed as biochemical. As to conditions: 20 μM ATP, 30° C., 120 minutes. The source says: cDNA of N-terminal His-tagged human Aurora A was integrated into an expression vector, which was then highly expressed in Escherichia coli BL21-CodonPlus(DE3)-RIL cells. The Escherichia coli was harvested and lysed, and then the His-tagged human Aurora A protein was applied onto a nickel chelate column and eluted from the column with imidazole. The active fractions were desalted with a desalting column to give a purified enzyme.
For the phosphorylation reaction, the method by Upstate, Inc. [Kinase Profiler™ Assay Protocols] was referred to, and phosphorylation of the substrate was detected using IMAP® technology (Molecular Devices, Co. Ltd.) (Gaudet E W. et. al, J. Biomol. Screen, 8, 164-175 (2003)). Concretely, the phosphorylation reaction and the detection were carried out as follows:
The phosphorylation reaction was conducted using 384 well plate, and the reaction volume was 10 μl/well. The reaction buffer is comprised of 50 mM Tris-chloride buffer (pH 7.4), 15 mM magnesium acetate, and 0.2 mM ethylenediamine-N,N,N′,N′-tetraacetic acid (EDTA). Thereto, the purified Aurora A protein, 100 nM of the peptide substrate, and 20 μM of adenosine 5′-triphosphate (ATP) were added, and then the reaction was carried out at 30° C. for 120 minutes.
Thereafter, in order to terminate and detect the reaction, 30 μl of the IMAP (registered trademark) binding reagent (IMAP Progressive Binding Reagent, R7284) that had been diluted (1:400) in the 1×IMAP binding buffer A (IMAP Progressive Binding Buffer A, 5× stock, R7282) was added to each well. The solution stood still for 60 minutes in the dark, and then fluorescence polarization was measured using a high-end microplate reader (excitation wavelength: 485 nm; emission wavelength: 520 nm).
The compound to be tested was added to the reaction system such that a dilution series of the compound in dimethylsulfoxide (DMSO) was prepared, and then 0.5 μL of this solution was added for the testing to each well. Each control well was provided by adding 0.5 μL of DMSO to the well in place of the DMSO solution containing the compound to be tested.
In general terms: Fluorescence polarisation rises when a labelled molecule tumbles more slowly, as on binding a larger partner.

The mark [4] stands for this setting: Homo sapiens, HeLa S3, 72 h, read-out: Cell growth inhibitory effect by sole administration of the compound of Example (%).
The mark [5] stands for this setting: compound 0.3 μM + docetaxel 0.3 nM.
Setting [6] is: compound 1.0 μM + docetaxel 0.3 nM.

Structures are written as SMILES. Where a name gives a salt, the structure may show the parent alone. Read-outs that look alike come from different tables or passages of the source.

T1 sequence (Q96GD4 whole entry): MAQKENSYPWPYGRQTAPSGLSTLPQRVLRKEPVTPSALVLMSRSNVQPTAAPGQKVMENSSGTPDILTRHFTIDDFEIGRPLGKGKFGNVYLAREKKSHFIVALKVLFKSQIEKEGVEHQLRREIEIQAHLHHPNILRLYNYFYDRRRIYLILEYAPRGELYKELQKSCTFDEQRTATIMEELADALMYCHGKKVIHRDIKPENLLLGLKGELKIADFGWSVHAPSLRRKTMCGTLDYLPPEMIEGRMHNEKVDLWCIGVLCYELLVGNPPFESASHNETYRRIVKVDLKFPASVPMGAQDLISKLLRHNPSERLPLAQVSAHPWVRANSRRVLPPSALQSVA
T1 sequence (Q9NQS7 803-916 partner limits assumed): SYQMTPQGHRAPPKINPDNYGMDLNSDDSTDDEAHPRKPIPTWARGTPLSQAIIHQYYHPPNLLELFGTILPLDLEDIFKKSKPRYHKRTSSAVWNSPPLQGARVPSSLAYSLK

What is called IC50 is the midpoint of a concentration-inhibition curve. On to `Cl.O=C(O)[C@]1(Cc2cccc(Nc3nccs3)n2)CC[C@@H](Oc2cccc(C(F)(F)F)c2F)CC1` [Example 4, trans-4-(2-fluoro-3-(trifluoromethyl)phenoxy)-1-((6-(1,3-thiazol-2-ylamino)pyridin-2-yl)methyl)cyclohexanecarboxylic acid hydrochloride], for which the IC50 in experiment [1] came out at 32 nM; in experiment [3], 830 nM; against human Aurora A it was 0.11 nM. Moreover, in experiment [2] (setting [4]), the inhibition at 0.3 µM came to 22.9%. Besides, the inhibition at 1 µM in experiment [2] (setting [4]) was 52.9%. The “Cell growth inhibitory effect by combined administration of docetaxel and the compound of Example (%)” value (from here on “Cell growth inhibitory effect … (%)”) in experiment [2] (setting [5]) is on record as 88.6%; in experiment [2] (setting [6]), 93.8%.

Regarding `NC(=O)[C@]1(Cc2cncc(Nc3cc[nH]n3)n2)CC[C@@H](Oc2cccc(Cl)c2F)CC1` [Example 15, trans-4-(3-chloro-2-fluorophenoxy)-1-((6-(1H-pyrazol-3-ylamino)pyrazin-2-yl)methyl)cyclohexanecarboxamide], the IC50 was 870 nM in experiment [1], 1760 nM in experiment [3] and 2 nM against human Aurora A. Moreover, in experiment [2] (setting [4]), the inhibition at 0.3 µM is 17%. Moreover, in experiment [2] (setting [4]), the inhibition at 1 µM came out at 42.4%. Moreover, the “Cell growth inhibitory effect … (%)” value was 76.4% in experiment [2] (setting [5]) and 90.8% in experiment [2] (setting [6]).

`NC(=O)[C@]1(Cc2cccc(Nc3cc[nH]n3)n2)CC[C@@H](Oc2cccc(Cl)c2F)CC1` [Example 11, trans-4-(3-chloro-2-fluorophenoxy)-1-((6-(1H-pyrazol-3-ylamino)pyridin-2-yl)methyl)cyclohexanecarboxamide]: the IC50 came out at 750 nM in experiment [1], 2800 nM in experiment [3] and 1.8 nM against human Aurora A. Further, the inhibition at 0.3 µM in experiment [2] (setting [4]) was 15.1%. Also, in experiment [2] (setting [4]), the inhibition at 1 µM stood at 25.4%. Further, the “Cell growth inhibitory effect … (%)” value worked out at 72.1% in experiment [2] (setting [5]) and 84.5% in experiment [2] (setting [6]).

For `O=C(O)[C@]1(Cc2cccc(Nc3nccs3)n2)CC[C@@H]([S+]([O-])c2cccc(Cl)c2Cl)CC1` (stereo partly drawn) [Example 31, trans-4-((2,3-dichlorophenyl)sulfinyl)-1-((6-(1,3-thiazol-2-ylamino)pyridin-2-yl)methyl)cyclohexanecarboxylic acid trifluoroacetate], the IC50 worked out at 53 nM in experiment [1], 5890 nM in experiment [3] and 0.19 nM on human Aurora A. The inhibition at 1 µM in experiment [2] (setting [4]) came to 1%. In addition, the inhibition at 3 µM in experiment [2] (Homo sapiens, HeLa S3, 72 h, compound 3.0 μM alone, read-out: Cell growth inhibitory effect by sole administration of the compound of Example (%)) was 38.5%. Moreover, the “Cell growth inhibitory effect … (%)” value in experiment [2] (setting [6]) was found to be 75.1%; in experiment [2] (compound 3.0 μM + docetaxel 0.3 nM) it was 89.0%.

For `O=C(O)[C@]1(Cc2cccc(Nc3cc[nH]n3)n2)CC[C@@H](Sc2cccc(Cl)c2Cl)CC1` [Example 33, trans-4-((2,3-dichlorophenyl)thio)-1-((6-(1H-pyrazol-3-ylamino)pyridin-2-yl)methyl)cyclohexanecarboxylic acid trifluoroacetate], the IC50 was 210 nM in experiment [1], 2220 nM in experiment [3] and 0.13 nM at human Aurora A. In experiment [2] (setting [4]), the inhibition at 0.3 µM is 0.3%. Further, the inhibition at 1 µM in experiment [2] (setting [4]) is 23.4%. Moreover, the “Cell growth inhibitory effect … (%)” value in experiment [2] (setting [5]) is recorded as 75.5%; in experiment [2] (setting [6]), 91.3%.

As for `Cl.O=C(O)[C@]1(Cc2cccc(Nc3nccs3)n2)CC[C@@H](Oc2cccc(Cl)c2F)CC1` [Example 1, trans-4-(3-chloro-2-fluorophenoxy)-1-((6-(1,3-thiazol-2-ylamino)pyridin-2-yl)methyl)cyclohexanecarboxylic acid hydrochloride], in experiment [2] (Homo sapiens, 72 h, read-out: Cell growth inhibitory effect by sole administration of the compound of Example (%)), the inhibition at 0.3 µM is 4.4%. In addition, in experiment [2] (setting [5]), the “Cell growth inhibitory effect … (%)” value was 84.7%. Further, the IC50 in experiment [3] is 1970 nM.
